The target in the assay is T1, NIT1 (NITRILASE1) (Arabidopsis thaliana, UniProt P32961).
T1 construct: recombinant, 6xHis-tagged, expressed in Escherichia coli, (NH4)2SO4 precipitation, Ni-NTA and PD-10 purified; tag cleavage not mentioned
T1 sequence (P32961 2-346): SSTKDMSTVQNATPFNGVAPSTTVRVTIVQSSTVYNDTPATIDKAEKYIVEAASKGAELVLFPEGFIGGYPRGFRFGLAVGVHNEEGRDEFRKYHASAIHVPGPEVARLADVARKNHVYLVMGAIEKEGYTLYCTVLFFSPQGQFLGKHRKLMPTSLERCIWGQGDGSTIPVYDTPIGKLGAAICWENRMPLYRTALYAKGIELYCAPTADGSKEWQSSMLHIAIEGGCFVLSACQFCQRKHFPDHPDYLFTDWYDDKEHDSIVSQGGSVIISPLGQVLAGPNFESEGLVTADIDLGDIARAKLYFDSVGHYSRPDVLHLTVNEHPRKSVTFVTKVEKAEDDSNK
As to the kind of experiment: Berthelot colorimetric ammonia assay; IC50 by linear-regression interpolation. The format is biochemical.

One molecule from PMC8360157, “The chemical compound ‘Heatin’ stimulates hypocotyl elongation and interferes with the Arabidopsis NIT1‐subfamily of nitrilases” (The Plant Journal, 2021) can be followed below.

Usually IC50 stands for the concentration at which inhibition is half-maximal. The low end stands for inhibition by little substance, the high end for a need for much substance. On to `CC(Nc1cccc2ccccc12)C(=O)NN=Cc1c(O)ccc2ccccc12` (stereo not shown) [D, N'‐[(2‐hydroxy‐1‐naphthyl)methylene]‐2‐(1‐naphthylamino)propanohydrazide], for which the IC50 is ~20.7 µM.
